Measurements reported in patent US4987139A, “FK-520 microbial transformation product” (Merck & Co., Inc., priority 1989, dated 1991).
“Also recorded” adds a separate entry of the source. Where two headings read alike, the source gives them in different places.

Experiments:
mouse T lymphocytes = experiment: T-cell proliferation assay (ionomycin plus PMA induced T-cell stimulation, tritiated thymidine uptake); assay type: cell-based, mouse (C57B1/6); conditions: for IC50: T-cell proliferation
Method: The principle of this assay is to measure the proliferation of mouse T lymphocytes stimulated with the combination of ionomycin plus PMA. A positive sample in this assay will inhibit T-cell proliferation, as indicated by reduced tritiated thymidine uptake.
Purified L-687,795, as prepared by HPLC above, was dissolved in absolute ethanol at 10 mg/ml.
Spleens from C57B1/6 mice were taken under sterile conditions and gently dissociated in ice-cold RPMI 1640 culture medium (GIBCO, Grand Island, N.Y.) supplemented with 10% heat-inactivated fetal calf serum (GIBCO). Cells were pelleted by centrifugation at 1500 rpm for 8 minutes. Contaminating red cells were removed by treating the pellet with ammonium chloride lysing buffer (GIBCO) for 2 minutes at 4° C. Cold medium was added and cells were again centrifuged at 1500 rpm for 8 minutes. T lymphocytes were then isolated by separation of the cell suspension on nylon wool columns as follows: Nylon wool columns were prepared by packing approximately 4 grams of washed and dried nylon wool into 20 ml plastic syringes. The columns were sterilized by autoclaving at 250° F for 30 minutes. Nylon wool columns were wetted with warm (37° C) culture medium and rinsed with the same medium. Washed spleen cells resuspended in warm medium were slowly applied to the nylon wool. The columns were then incubated in an upright position at 37° C for 1 hour. Non-adherent T lymphocytes were eluted from the columns with warm culture medium and the cell suspensions were spun as above.
Purified T lymphocytes were resuspended at 2.5×10^5 cells/ml in complete culture medium composed of RPMI 1640 medium with 10% heat-inactivated fetal calf serum, […], 1 mM sodium pyruvate, 2×10^-5 M 2-mercaptoethanol and 50 μg/ml gentamycin. Ionomycin was added at 250 ng/ml and PMA at 10 ng/ml. The cell suspension was immediately distributed into 96 well flat-bottom microculture plates (Costar) at 200 μl/well. The control, being the medium without test drug, and various below-indicated dilutions of the sample (above-describedpurified L-687,795) to be tested were then added in triplicate wells at 20 μl/well. L-683,590 was used as a standard. The culture plates were then incubated at 37° C. in a humidified atmosphere of 5% CO2 -95% air for 44 hours. The proliferation of T lymphocytes was assessed by measurement of tritiated thymidine incorporation. After 44 hours of culturing, the cells were pulse-labelled with 2 μ Ci/well of tritiated thymidine (NEN, Cambridge, MA). After another 4 hours of incubation, cultures were harvested on glass fiber filters using a multiple sample harvester. Radioactivity of filter discs corresponding to individual wells was measured by standard liquid scintillation counting methods (Betacounter). Mean counts per minute of replicate wells were calculated and the results expressed as percent inhibition of tritiated thymidine uptake (proliferation) as follows: [formula]
1. Mouse T cell cultures were pulsed with ^3 Hthymidine for 4 hours
prior to harvesting at 48 hours.

[1] = reputed; EPO Publication No. 0184162; cited from earlier work
[2] = Solubility (physical characteristics); assay type: physicochemical; conditions: methanol

Compound CC[C@@H]1/C=C(\C)C[C@H](C)C[C@H](OC)[C@H]2O[C@@](O)(C(=O)C(=O)N3CCCC[C@H]3C(=O)O[C@H](/C(C)=C/[C@@H]3CC[C@@H](O)[C@H](OC)C3)[C@H](C)[C@@H](O)CC1=O)[C@H](C)C[C@@H]2OC [L-683,590, reference compound] has an inhibition at 0.01 µg/mL (mouse T lymphocytes; Mus musculus, T-lymphocyte, 10 ng/ml, standard) of 99%.

In the case of C=CC[C@@H]1/C=C(\C)C[C@H](C)C[C@H](OC)[C@H]2O[C@@](O)(C(=O)C(=O)N3CCCC[C@H]3C(=O)O[C@H](/C(C)=C/[C@@H]3CC[C@@H](O)[C@H](OC)C3)[C@H](C)[C@@H](O)CC1=O)[C@H](C)C[C@@H]2OC [FK-506], the “times more effective than cyclosporin” value [1] is listed as 100 times.

For CCC1C=C(C)CC(C)CC(O)C(O)C2CC(C)C(O)(O2)C(=O)C(=O)N2CCCCC2C(=O)OC(C(C)=CC2CCC(O)C(O)C2)C(C)C(O)CC1=O [L-687,795], the “Inhibition of proliferation on addition of recombinant human IL2” value (mouse T lymphocytes; 50 units/m recombinant human IL2 added at initiation of culture) was “reversed”, the inhibition at 0.39 µg/mL (mouse T lymphocytes; Mus musculus, T-lymphocyte, 390 ng/ml, ionomycin + PMA, 48 h) was 0% and the inhibition at 0.57 µg/mL (mouse T lymphocytes; Mus musculus, T-lymphocyte, 570 ng/ml, ionomycin + PMA, 48 h) was 2%. For the same compound, the inhibition at 0.87 µg/mL (mouse T lymphocytes; Mus musculus, T-lymphocyte, 870 ng/ml, ionomycin + PMA, 48 h) was 29%, the inhibition at 1.3 µg/mL (mouse T lymphocytes; Mus musculus, T-lymphocyte, 1,300 ng/ml, ionomycin + PMA, 48 h) was 60% and the inhibition at 1.9 µg/mL (mouse T lymphocytes; Mus musculus, T-lymphocyte, 1,900 ng/ml, ionomycin + PMA, 48 h) was 78%. For the same compound, the inhibition at 2.9 µg/mL (mouse T lymphocytes; Mus musculus, T-lymphocyte, 2,900 ng/ml, ionomycin + PMA, 48 h) was 81%, the inhibition at 4.4 µg/mL (mouse T lymphocytes; Mus musculus, T-lymphocyte, 4,400 ng/ml, ionomycin + PMA, 48 h) was 88% and the inhibition at 6.6 µg/mL (mouse T lymphocytes; Mus musculus, T-lymphocyte, 6,600 ng/ml, ionomycin + PMA, 48 h) was 90%. It also gave an inhibition at 10 µg/mL (mouse T lymphocytes; Mus musculus, T-lymphocyte, 10,000 ng/ml, ionomycin + PMA, 48 h) of 91%, an IC50 (mouse T lymphocytes; Mus musculus, T-lymphocyte, general range, read-out: IC50, generally in the range of) of 1000 to 1400 nM and an IC50 (mouse T lymphocytes; Mus musculus, T-lymphocyte, read-out: IC50) of 1190 nM. The “inhibition of T-cell activation / immunosuppressive activity by the T-cell proliferation assay” value (mouse T lymphocytes; qualitative) was “positive inhibition of T-cell activation; also recorded: positive immunosuppressive activity” and the Solubility [2] was “Solubility in methanol”.
